Values quoted from earlier work in patent US20230241051A1, “LONG-ACTING FORMULATIONS” (Janssen Pharmaceutica NV, priority 2020, published 2023).

Experiments:
Conditions in all cases: cited from earlier work
Mycobacterium leprae = system: Mycobacterium leprae
[1] = molecular target: mycobacterial ATP synthase (Mycobacterium tuberculosis, UniProt P9WPS1+P9WPV7)
M. tuberculosis = system: M. tuberculosis

Sequence of mycobacterial ATP synthase (P9WPS1 whole entry, looked up): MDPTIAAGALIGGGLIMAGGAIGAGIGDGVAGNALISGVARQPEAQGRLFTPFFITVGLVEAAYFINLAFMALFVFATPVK
Sequence of mycobacterial ATP synthase (P9WPV7 whole entry, looked up): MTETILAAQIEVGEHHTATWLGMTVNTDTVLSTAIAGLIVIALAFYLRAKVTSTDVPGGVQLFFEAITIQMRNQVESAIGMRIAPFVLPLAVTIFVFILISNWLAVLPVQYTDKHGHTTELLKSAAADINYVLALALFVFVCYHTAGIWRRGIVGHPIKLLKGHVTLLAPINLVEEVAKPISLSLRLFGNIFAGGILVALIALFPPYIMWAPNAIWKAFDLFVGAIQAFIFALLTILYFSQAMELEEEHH

COc1nc2ccc(Br)cc2cc1[C@@H](c1ccccc1)[C@@](O)(CCN(C)C)c1cccc2ccccc12 [bedaquiline]
minimal dose killing 99% of bacilli (Mycobacterium leprae; M. lepra): < 5.0 mg/kg/wk
activity against Mycobacterium leprae (Mycobacterium leprae; mice): bactericidal
selectivity index for mycobacterial ATP synthase versus eukaryotic mitochondrial ATP synthase [1]: more than 20000
minimal dose killing 99% of bacilli (M. tuberculosis): 30 mg/kg/wk
